Entries after “also recorded” stand apart in the source; their conditions may differ.
Assays:
Lewis rats [1] = test: IPGTT of analogs HG-1 to HG-11, compounds given orally (FIG. 15); assay type: in vivo, rat; conditions: 2 mg/kg orally; for decrease of the AUC IPGTT (area under the blood glucose concentration-time curve): 30 min before i.p. glucose, relative to vehicle, n=5
Procedure: FIG. 15 is a bar graph showing the results of testing various analogs HG-1 to HG-11 in IPGTT glucose tolerance tests in rats. Results for TBZ, emetine, and olanzapine are also shown. Lewis rats fasted for 6 hours were administered the compounds orally (30 min, 2 mg/kg) followed by intraperitoneal glucose injection (0 min, […]), and plasma glucose levels were monitored for 120 mins. Results are presented as AUC percentage of the vehicle. Error bars indicate SEM (n=5).
Racemic HG-2 and its diastereoisomer HG-1 were evaluated for their ability to improve glucose tolerance by performing intraperitoneal glucose tolerance tests (IPGTT) in rats. IPGTT testing is described above. See also Murthy, R., et al., Eur. J. Nucl. Med. Mol. Imaging, 2008, 35(4), 790-797.

VMAT2 in beta cells = target: T1, VMAT2 in beta cells (Rattus norvegicus, UniProt Q01827); test: PET study: displacement of [11C]DTBZ in the pancreas by cold analog; assay type: in vivo; conditions: cold compound 2 mg/kg injected 30 min after radioligand; relative to DTBZ
T1 construct: from tissue; host or cells: pancreas (beta cells) of living Lewis rats
Procedure: PET scans were performed on anesthetized 12-14 week old Lewis male rats injected with radioligand [^11C]DTBZ (0 min, 0.5-1.0 μCi/gm body weight, specific activity >[…]) and cold compound 8 (HG-3) (30 mins, 2 mg/kg). The fraction of radioligand in the pancreas relative to the total amount injected was calculated and plotted versus time after injection. Error bars indicate SEM (n=3).
To test binding to VMAT2 in beta cells, PET scans were performed on 12-14 week old Lewis Male rats. Prior to imaging, the animals were anesthetized by isoflurane inhalation. After a transmission scan of the area of interest had been acquired (used to perform attenuation correction of the emission data), the radioligand [11C]DTBZ was administered (0.5-1.0 μCi/gm) in saline as bolus injection via the penile vein. PET scans of the animals were acquired dynamically to 90 min post injection on a Concorde microPET-R4 (CTI Molecular Imaging, Knoxville, Tenn., USA). The scanner provided a 100×80 mm field of view with a reconstructed resolution of 2.25 mm in the central 40 mm of the field of view. At thirty minutes post injection of [11C]DTBZ, the animals received a second injection via the penile vein of cold analog. […]

[2] = target: T2, dipeptidyl peptidase IV (DDP-IV) (Homo sapiens, UniProt P27487); test: Effect on dipeptidyl peptidase IV in vitro (BPS Bioscience assays); assay type: biochemical; conditions: concentrations up to 10 μM; data not shown
T2 construct: purchased BPS Bioscience, Inc. (San Diego, Calif.)
Procedure: The effect of HG-3 on DDP-IV was determined by assays provided by BPS Bioscience, Inc. (San Diego, Calif.).

human islets = test: Glucose-stimulated insulin secretion of purified human cadaveric islets ex vivo; assay type: cell-based; conditions: high glucose media; ELISA
Procedure: The islet tissue used in these studies was obtained with institutional review board approval. Pancreas digestion and islet isolation were performed using minor modifications of the Edmonton purification protocol. (Shapiro, […] al. “Islet […] in seven patients with type I diabetes mellitus using a glucocortoid-free immunosuppressive regimen.” New England Journal of Medicine 343(4):230-8, (2000)) The determination of islet cell mass, viability, and purity were also performed. Purified islets were cultured in CMRL 1066 culture media with 10% fetal bovine serum at 37° C. in humidified air (5% CO2) for 18 to 24 hours. The human islet insulin secretory response was performed according to a procedure described by the Edmonton group. (Id.) Briefly, after an overnight culture, islets were incubated with either low or high concentrations of glucose for 2 hours at 37° C. and 5% CO2. The supernatant was collected for insulin measurement. Insulin concentrations in these experiments were analyzed with a human insulin enzyme-linked immunosorbent assay (ELISA) kit (ALPCO Insulin ELISA kit, Windham, N.H.). In some experiments TBZ, DTBZ or epinephrine was added to the cultures before glucose stimulation.

Lewis rats [3] = test: Intraperitoneal glucose tolerance test (IPGTT), compounds given i.v.; assay type: in vivo, rat
Procedure: (§1) All animal studies were reviewed and approved by the Institutional Animal Care and Use Committee (IACUC) at Columbia University's Medical School. All experiments were performed in accordance with the IACUC approved procedures. Normal male Lewis rats (100-400 grams) were obtained from Taconic (Taconic Inc., Germantown, N.Y.) and were housed under conditions of controlled humidity (55±5%), temperature (23±1° C.), and lighting (light on: 06.00-18.00 hours) with free access to standard laboratory rat chow and water. Rats were handled daily to minimize nonspecific stress for more than 7 days before the experiments began. In most experiments, it was necessary to measure blood glucose in fasting animals. For these groups, food was removed at the beginning of the light cycle, 6 hours before glucose levels were measured. Diabetes mellitus was induced by intraperitoneal injection of streptozotocin (Sigma Chemical Co., St. Louis, Mo.) (25 to 50 mg/kg) to animals (100 to 150 grams) that had been fasted 4 hours to enhance the effectiveness of STZ treatment.
The STZ solution was prepared fresh by dissolving it in 0.1 M citrate buffer (pH 5.5) and terminally sterile filtered. Control Lewis age and weight matched rats received a 0.5 ml/kg citrate vehicle alone via intraperitoneal injection. Sixty minutes prior to intraperitoneal glucose tolerance testing (IPGTT), anesthesia of male Lewis rats was induced with isoflurane (3-4% in oxygen) and maintained with 1-2% isoflurane in oxygen. Anaesthetized rats were administered TBZ and other indicated compounds at the indicated dose by intravenous (i.v.) injection using the penile vein. TBZ was dissolved in neat sterile dimethylsulfoxide (DMSO) and diluted (always more than 10 fold) in sterile saline. Rats received injections of vehicle alone (10% DMSO in saline) or reserpine (in saline). Animals recovered fully before receiving IPGTT.
(§2) Blood samples were collected from a superficial blood vessel in the tails of the rats following 6 hours of fasting between 12:00 noon and 2:00 p.m. The fasting blood glucose (BG) levels of the rats were measured using an Accu-Check blood glucose monitoring system (Roche Diagnostics, Sommerville, N.J.). Intraperitoneal glucose tolerance tests (IPGTT) were performed in 6 hour fasting un-anaesthetized animals. Briefly, after baseline BG measurements, animals received an intraperitoneal (i.p.) injection of 1 gram glucose/kilogram body weight. To minimize stress during the procedure, rats were handled by the same operator during acclimatization and later during weighing and IPGTT. Blood samples (approximately 30 μl) were collected at baseline and then again 15, 30, 60, 90, and 120 minutes following i.p. glucose administration. BG concentrations were measured immediately on these samples and the remainder processed.
(§3) Plasma was immediately separated by centrifugation at 3000×g for 15 minutes and then stored at −20° C. until analysis. Insulin and glucagon concentration measurements in rat plasma were performed by ELISA as per the manufacturer's instructions using kits from Linco Research Inc. (St. Charles, Mo.) and Alpco Diagnostics (Salem, N.H.), respectively. To validate the test, saline injections were performed by the same method. […] The area under the IPGTT glucose concentration×time curve (AUCIPGTT) was calculated by the trapezoidal rule. The area under the insulin or glucagon concentration×time curve (AUC INS or AUC GCG) was calculated in a similar manner.
Anaesthetized rats were administered TBZ, THB, butamol, reserpine, emetine, or HG-6 at a dose of approximately 2-3 mg/kg body weight by intravenous (i.v.) injection using the penile vein. TBZ, THB, butamol, reserpine, emetine, and HG-6 were each separately dissolved in neat sterile dimethylsulfoxide (DMSO) and diluted (always more than 10 fold) in sterile saline. Rats received injections of vehicle alone (10% DMSO in saline) or reserpine (in saline). Animals recovered fully before receiving IPGTT. […]

diabetic Lewis rats = test: IPGTT in streptozotocin-induced diabetic Lewis rats; assay type: in vivo, rat
Procedure: as §1, with “In most experiments, it was necessary to measure blood glucose in fasting animals.” left out, “Diabetes mellitus was induced by intraperitoneal injection of streptozotocin (Sigma Chemical Co., St. Louis, Mo.) (25 to 50 mg/kg) to animals (100 to 150 grams) that had been fasted 4 hours to enhance the effectiveness of STZ treatment.” left out
Blood samples were collected from a superficial blood vessel in the tails of the rats following 6 hours of fasting between 12:00 noon and 2:00 p.m. The fasting blood glucose (BG) levels of the rats were measured using an Accu-Check blood glucose monitoring system (Roche Diagnostics, Sommerville, N.J.). […] BG concentrations were measured immediately on these samples and the remainder processed.
Plasma was immediately separated by centrifugation at 3000×g for 15 minutes and then stored at −20° C. until analysis. […] The area under the IPGTT glucose concentration×time curve (AUCIPGTT) was calculated by the trapezoidal rule. […]

[4] = system: dopamine content of brain and pancreas tissue; test: Dopamine measurements in brain and pancreas extracts (ELISA); assay type: in vivo, rat
Procedure: Anaesthetized rats received an intravenous injection of TBZ and were sacrificed one hour later. Euthanasia was performed by exsanguination of the anesthetized animal. Brain and pancreas were harvested as quickly as possible and frozen at −80° C. until use. Frozen tissue was pulverized in a liquid nitrogen cooled mortar and extracted in 0.01 N HCl. The tissue extract was centrifuged at 10,000×g at 4° C. to remove debris and the total protein was estimated by reading the absorbance at 280 nm. The concentration of dopamine in the extract was estimated using an ELISA kit from Rocky Mountain Diagnostics (Colorado Springs, Colo.) per the manufacturer's instructions and normalized to the extract protein concentration.

Lewis rats [5] = test: Plasma insulin and glucagon during IPGTT (ELISA); assay type: in vivo, rat
Procedure: as §2, §3

T1 sequence (Q01827 whole entry): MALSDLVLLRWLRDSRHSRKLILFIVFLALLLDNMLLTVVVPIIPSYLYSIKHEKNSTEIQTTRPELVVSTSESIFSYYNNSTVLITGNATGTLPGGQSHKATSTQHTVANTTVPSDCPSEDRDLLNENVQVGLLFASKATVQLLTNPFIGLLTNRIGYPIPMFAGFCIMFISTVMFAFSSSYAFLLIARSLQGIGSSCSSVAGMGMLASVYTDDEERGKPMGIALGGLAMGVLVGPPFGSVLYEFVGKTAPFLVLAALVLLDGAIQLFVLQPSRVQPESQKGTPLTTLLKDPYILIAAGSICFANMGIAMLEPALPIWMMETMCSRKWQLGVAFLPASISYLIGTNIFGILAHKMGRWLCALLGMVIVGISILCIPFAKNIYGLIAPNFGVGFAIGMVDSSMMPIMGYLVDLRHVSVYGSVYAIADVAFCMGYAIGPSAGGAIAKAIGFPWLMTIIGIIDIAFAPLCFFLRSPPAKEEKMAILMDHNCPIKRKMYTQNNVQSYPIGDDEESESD
T2 sequence (P27487 whole entry): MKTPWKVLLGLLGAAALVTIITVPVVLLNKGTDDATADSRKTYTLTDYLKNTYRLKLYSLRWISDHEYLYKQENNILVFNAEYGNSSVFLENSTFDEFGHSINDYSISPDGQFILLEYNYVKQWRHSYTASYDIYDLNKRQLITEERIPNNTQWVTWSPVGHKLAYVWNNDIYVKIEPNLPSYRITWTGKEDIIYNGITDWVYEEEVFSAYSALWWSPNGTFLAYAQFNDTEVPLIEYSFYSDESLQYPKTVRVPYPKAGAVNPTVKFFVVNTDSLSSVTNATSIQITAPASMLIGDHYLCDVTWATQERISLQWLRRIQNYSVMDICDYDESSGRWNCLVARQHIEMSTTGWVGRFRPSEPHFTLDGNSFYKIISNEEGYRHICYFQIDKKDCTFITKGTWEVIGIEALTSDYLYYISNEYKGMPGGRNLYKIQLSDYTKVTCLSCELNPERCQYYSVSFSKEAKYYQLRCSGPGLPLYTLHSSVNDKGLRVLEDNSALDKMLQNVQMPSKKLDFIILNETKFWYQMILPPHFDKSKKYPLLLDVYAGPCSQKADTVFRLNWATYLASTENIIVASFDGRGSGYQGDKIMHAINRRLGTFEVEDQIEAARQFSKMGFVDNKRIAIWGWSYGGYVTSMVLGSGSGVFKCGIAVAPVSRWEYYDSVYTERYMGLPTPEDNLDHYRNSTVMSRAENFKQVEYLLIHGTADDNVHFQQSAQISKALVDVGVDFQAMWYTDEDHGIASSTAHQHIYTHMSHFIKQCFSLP

COc1ccc(C2CC(OCC(C)C)=CC(=O)N2)cc1OC (stereo not drawn) [HG-3, 6-(3,4-dimethoxyphenyl)-4-isobutoxy-5,6-dihydropyridin-2(1H)-one]
decrease of the AUC IPGTT (area under the blood glucose concentration-time curve) (Lewis rats [1]): 45% | hypoglycemic activity in IPGTT compared with TBZ / HG-3 (Lewis rats [1]; FIG. 15): potent hypoglycemic effect; also recorded: significant decrease in blood glucose levels as compared to TBZ | displacement of [11C]DTBZ in the endocrine pancreas / binding to VMAT2 (VMAT2 in beta cells): did not significantly displace | effect on DDP-IV in vitro [2]: negative

CNC[C@H](O)c1ccc(O)c(O)c1 [epinephrine, L-epinephrine bitartrate]
insulin secretion by human islets after stimulation by high concentrations of glucose (human islets): inhibited secretion of insulin

COc1cc2c(cc1OC)[C@@H]1CC(=O)[C@@H](CC(C)C)CN1CC2 [TBZ, tetrabenazine]
AUC Blood Glucose IPGTT (Lewis rats [3]; 2 mg/kg (2.0 μg/gbw) i.v.): smaller area under the curve; also recorded: lower than that for vehicle and butamol treated animals | blood glucose excursion during IPGTT (Lewis rats [3]; 2 mg/kg body weight i.v., Lewis rats 9-11 weeks old, vs vehicle (DMSO)): reduced the blood glucose excursion | blood glucose excursion during IPGTT (Lewis rats [3]; 2 mg/kg body weight i.v., Lewis rats 9-11 weeks old, vs vehicle (DMSO), listed as Tetrabenazine): reduced the blood glucose excursion | blood glucose excursion during IPGTT (Lewis rats [3]; Lewis rats 9-11 week old, TBZ 1.6 μg/gm body weight i.v., vs vehicle): reduces the blood glucose excursion | blood glucose excursion during IPGTT (Lewis rats [3]; Lewis rats 9-11 week old, TBZ 1.6 μg/gm body weight i.v., vs vehicle, listed as tetrabenazine): significant change in the size and shape of the glucose disposition curve | reduction of the glucose excursion (areas under the curve during IPGTT) (Lewis rats [3]; TBZ 1.6 μg/gbw): 40-50% | AUC IPGTT of controls compared with TBZ treated animals (Lewis rats [3]; TBZ 1.6 μg/gm, series of experiments n=4, p<0.05): significantly higher | baseline fasting glucose concentration (Lewis rats [3]; after TBZ administration, before glucose challenge, data not shown): no reproducible differences were observed | blood glucose levels around sixty minutes following glucose challenge (Lewis rats [3]; i.v. injection at 2 mg/kg body weight): returned to control or near normal levels | blood glucose excursion during IPGTT (Lewis rats [3]; single dose 2-3 mg/kg body weight i.v., FIG. 12): consistently reduced the blood glucose excursion | area under the curve from glucose tolerance tests (Lewis rats [3]; single dose 2-3 mg/kg body weight i.v., FIG. 12, each series a separate experiment): consistently suppressed the area under the curve; also recorded: depress the area under the curve | dose dependence of AUC IPGTT (Lewis rats [3]; varying doses of TBZ, normalized to each animal's untreated baseline IPGTT): complex dose response effect; also recorded: reduces the blood glucose excursion in a dose dependent manner | blood glucose excursion / area under the curve in IPGTT, diabetic rats (diabetic Lewis rats; STZ-diabetic Lewis rats 5-8 weeks, TBZ 1.6 μg/gm i.v.): smaller area under the curve; also recorded: reduces the blood glucose excursion during IPGTT in diabetic Lewis rats | blood glucose levels before i.p. glucose challenge, diabetic rats (diabetic Lewis rats; around sixty minutes following i.v. injection of TBZ): returned to control or near normal levels | dopamine content of brain and pancreas tissue ([4]; TBZ 1.6 μg/gm body weight i.v., one hour later, normalized to total protein): reduces the dopamine content of brain and pancreas tissue | dopamine content of pancreas and brain ([4]; one hour after injection of 10 μg/gm body weight of tetrabenazine): significantly depleted the dopamine content of pancreas and brain | glucose-stimulated insulin and glucagon secretion in vivo (Lewis rats [5]; TBZ 1.6 μg/gm, Lewis rats 9-11 week old, during IPGTT): alters glucose-stimulated insulin and glucagon secretion in vivo | plasma insulin levels relative to vehicle treated controls (Lewis rats [5]; following TBZ and glucose challenge): greater | plasma glucagon levels relative to controls (Lewis rats [5]; following i.v. TBZ administration and glucose challenge): generally lower | AUC INS with TBZ treatment relative to AUC INS of control animals (Lewis rats [5]; four out of five experiments): greater than two fold | baseline plasma concentrations of glucagon (Lewis rats [5]; prior to glucose challenge): sometimes lower than controls, although these differences did not reach statistical significance | AUC GCG, less than AUC GCG of control animals (Lewis rats [5]; three of five experiments): 75%-85% | decrease of the AUC IPGTT (area under the blood glucose concentration-time curve) (Lewis rats [1]): 26%

COc1cc2c(cc1OC)[C@@H]1C[C@H](O)[C@@H](CC(C)C)CN1CC2 [DTBZ, dihydrotetrabenazine]
insulin secretion by human islets after stimulation by high concentrations of glucose (human islets): significantly enhanced the amount of insulin secreted; also recorded: enhances glucose-stimulated insulin secretion

COc1ccc(C2CC(O)C(CC(C)C)C(=O)N2)cc1OC (stereo not drawn) [HG-4]
displacement of [11C]DTBZ in the endocrine pancreas / binding to VMAT2 (VMAT2 in beta cells): weak binding

Source: patent US9260391B2, “Hypoglycemic dihydropyridones” (The Trustees of Columbia University in the City of New York, priority 2008, dated 2016)
